Data set [1] can be described thus: Anti-inflammatory effect (carrageenin edema of hind paw). On the set-up: anti-inflammatory effect (inhibition percentage of carrageenin edema): scale not given here. The format is in vivo, Wistar-strain male rats. The following applies: orally, rats, 3 hours. Here is the method: 2. Anti-inflammatory effect
A group of five Wistar-strain male rats (100-150 g) were orally administered with each test compound suspended in 0.5 % tragacanth-saline solution. After 30 minutes 0.5 %-1.0 % carrageenin suspended in the water for injection was injected subcutaneously to a hind paw. After 3 hours the carrageenin edema was measured by volume and the inhibition percentage was determined with respect to the results for the control animals. The inhibition percentages were shown with the notations as follows: […]

The nature of data set [2]: Analgetic effect (acetic acid writhing syndrome). To be noted: orally, mice; for ED50: Mus musculus, po, acetic acid writhing. It is filed as in vivo, dd-strain male mice. Here is the method: Each test compound suspended in 0.5 % tragacanth-saline solution was orally administered to dd-strain male mice (18-20 g). After one hour 0.6% acetic acid solution was intraperitoneally injected in a volume of 0.1 ml/10 g.

The subject of data set [3] is dd-strain male mice. The following applies: 72 hours. As for the experimental part:
The lethal dose was estimated from the death of animals 72 hours after administration.

The nature of data set [4]: Analgetic effect (acetic acid writhing syndrome). To be noted: Mus musculus, ip, mice. It is filed as in vivo, dd-strain male mice. (Writhing tests count abdominal constrictions after an irritant is injected.)
Setting [5] is: Rattus norvegicus, po, read-out: anti-inflammatory effect (inhibition percentage of carrageenin edema).
Setting [6] is: Rattus norvegicus, po, dose 50 mg/kg, read-out: anti-inflammatory effect (inhibition percentage of carrageenin edema).

Like-named read-outs stand apart in the source and are kept apart here.

Consider nine compounds from US3984415A, “1-Nitrophenylpyrido [2,3-d] pyrimidine-2,4(1H,3H)-diones” (Hisamitsu Pharmaceutical Co., Inc., priority 1973, dated 1976).

The ED50 is the midpoint of the dose-response relation.

In the case of `CCOC(=O)Cn1c(=O)c2cccnc2n(-c2cccc([N+](=O)[O-])c2)c1=O` [Compound 27], the inhibition in vivo at 10 mg/kg in data set [1] (setting [5]) is 31 to 45%. The inhibition in vivo at 20 mg/kg in data set [1] (Rattus norvegicus, po, dose 20 mg/kg, read-out: anti-inflammatory effect (inhibition percentage of carrageenin edema)) lay within 31 to 45%. Also, in data set [1] (setting [6]), the inhibition in vivo at 50 mg/kg lay in the range of 46 to 60%. Moreover, the inhibition in vivo at 100 mg/kg in data set [1] (setting [5]) was 46 to 60%. In addition, the ED50 in data set [2] was found to be 45 mg/kg. The “acute toxicity (lethal dose)” value is 1000 mg/kg in data set [3] (i.p.) and above 2000 mg/kg in data set [3] (p.o.).
On to `O=c1c2cccnc2n(-c2cccc([N+](=O)[O-])c2)c(=O)n1CCc1ccccc1` [Compound 31], for which the inhibition in vivo at 100 mg/kg in data set [1] (setting [5]) was below 15%. This compound also yielded an ED50 in data set [2] above 100 mg/kg. Moreover, the “acute toxicity (lethal dose)” value in data set [3] (i.p.) is reported as above 1000 mg/kg; in data set [3] (p.o.), above 2000 mg/kg.
On to `Cn1c(=O)c2cccnc2n(-c2cccc([N+](=O)[O-])c2)c1=S` [Compound 33, 1-(m-nitrophenyl)-3-methyl-2-thio-4-oxo-1,2,3,4-tetrahydropyrido[2,3-d]pyrimidine], for which, in data set [1] (setting [5]), the inhibition in vivo at 10 mg/kg was 46 to 60%. In data set [1] (dose 50 mg/kg), the “anti-inflammatory effect (inhibition percentage of carrageenin edema)” value was “+ ++”. Also, the “analgetic effect ED50, 95% C.L.” value in data set [2] (only the 95% confidential limits are printed) fell in the range of 0.23 to 1.55 mg/kg. Further, the figures for the “acute toxicity (lethal dose)” value in data set [3] (i.p.) and in data set [3] (p.o.) were above 1000 mg/kg and above 2000 mg/kg, respectively.
Take `CCn1c(=O)c2cccnc2n(-c2cccc([N+](=O)[O-])c2)c1=S` [Compound 34]: the inhibition in vivo at 10 mg/kg in data set [1] (setting [5]) is 46 to 60%. Moreover, in data set [1] (setting [6]), the inhibition in vivo at 50 mg/kg fell in the range of 46 to 60%. For the same compound, the ED50 in data set [2] is around 0.2 mg/kg. Further, the figures for the “acute toxicity (lethal dose)” value in data set [3] (i.p.) and in data set [3] (p.o.) were above 1000 mg/kg and above 2000 mg/kg, respectively.
`CCCn1c(=O)c2cccnc2n(-c2cccc([N+](=O)[O-])c2)c1=S` [Compound 35]: the inhibition in vivo at 10 mg/kg in data set [1] (setting [5]) was 16 to 30%. Besides, the inhibition in vivo at 50 mg/kg in data set [1] (setting [6]) lay within 16 to 30%. Moreover, the ED50 in data set [2] is around 1000 mg/kg. Moreover, the “acute toxicity (lethal dose)” value in data set [3] (i.p.) is above 1000 mg/kg; in data set [3] (p.o.) it was above 2000 mg/kg.
Regarding `O=c1c2cccnc2n(-c2cccc([N+](=O)[O-])c2)c(=S)n1CC(F)(F)F` [Compound 39], the inhibition in vivo at 10 mg/kg in data set [1] (setting [5]) is above 61%. Also, the inhibition in vivo at 50 mg/kg in data set [1] (setting [6]) fell in the range of 46 to 60%. The same compound gave an ED50 in data set [2] of 0.23 mg/kg. The “acute toxicity (lethal dose)” value in data set [3] (i.p.) was above 1000 mg/kg; in data set [3] (p.o.), above 2000 mg/kg.
On to `O=C(Cn1c(=O)c2cccnc2n(-c2cccc([N+](=O)[O-])c2)c1=O)c1ccc(Cl)cc1` [O --CH2 CO], for which the inhibition in vivo at 100 mg/kg in data set [1] (setting [5]) was below 15%. The same compound displayed a 50% effective dose (ED50) in data set [2] above 100 mg/kg. Moreover, the “acute toxicity (lethal dose)” value in data set [3] (i.p.) was above 1000 mg/kg; in data set [3] (p.o.) it was above 2000 mg/kg.
For the compound `Cc1c(N(C)C)c(=O)n(-c2ccccc2)n1C` [aminopyrine, reference compound], the inhibition in vivo at 10 mg/kg in data set [1] (setting [5]) was below 15%. In addition, the inhibition in vivo at 50 mg/kg in data set [1] (setting [6]) was below 15%. In addition, in data set [3] (i.p.), the “acute toxicity (lethal dose)” value is 100 to 300 mg/kg. In addition, it took a dose of 56 mg/kg to reach the 50% effect level in data set [4] (ED50).
For the compound `O=C(O)c1ccccc1Nc1cccc(C(F)(F)F)c1` [flufenamic acid, reference compound], the inhibition in vivo at 10 mg/kg in data set [1] (setting [5]) is below 15%. Further, the inhibition in vivo at 50 mg/kg in data set [1] (setting [6]) fell in the range of 16 to 30%. In addition, the median effective dose (ED50) in data set [2] came out at 180 mg/kg. Further, in data set [3] (i.p.), the “acute toxicity (lethal dose)” value lay within 300 to 1000 mg/kg.
